Results as given in ChEMBL document CHEMBL1212812, “Multi-target spectral moment QSAR versus ANN for antiparasitic drugs against different parasite species” (Bioorg Med Chem, 2010).

How the values were obtained:
Assay type in all cases: functional, organism-based
[1] = tested on: Trypanosoma brucei brucei; test: Antimicrobial activity against Trypanosoma brucei brucei
[2] = tested on: Trypanosoma brucei rhodesiense; test: Antimicrobial activity against Trypanosoma brucei rhodesiense
Leishmania donovani = test: Antimicrobial activity against Leishmania donovani
Toxoplasma gondii = test: Antimicrobial activity against Toxoplasma gondii
Trichomonas vaginalis = test: Antimicrobial activity against Trichomonas vaginalis
Leishmania infantum = test: Antimicrobial activity against Leishmania infantum

Structure (SMILES) | IC50 [1] [µM] | IC50 (Trichomonas vaginalis) [µM] | IC50 (Leishmania infantum) [µM] | further results
N[C@@H]1[C@H]2CN(c3cc4c(cc3F)c(=O)c(C(=O)O)cn4-c3ccc(F)cc3F)C[C@@H]12 [TROVAFLOXACIN6] |  |  |  | IC50 (Toxoplasma gondii; Toxoplasma gondii): 3 µM
C1CNC(N2CCN(N3CCN(C4=NCCN4)CC3)CC2)=N1 |  |  |  | IC50 [2]: 28 µM
N[C@@H]1[C@H]2CN(c3nc4c(cc3F)c(=O)c(C(=O)O)cn4C3CC3)C[C@@H]12 [TROVAFLOXACIN4] |  |  |  | IC50 (Toxoplasma gondii; Toxoplasma gondii): 2 µM
O=C(NCCCN1CCN(C(=O)OCc2ccccc2)C1)OCc1ccccc1 |  |  |  | IC50 [2]: 1 µM
C[C@H]1[C@H](C)CC[C@]2(C(=O)O)CC[C@]3(C)C(=CC[C@@H]4[C@@]5(C)CC[C@H](O)C(C)(C)[C@@H]5CC[C@]43C)[C@H]12 [URSOLIC ACID] |  |  |  | IC50 (Toxoplasma gondii; Toxoplasma gondii): 1 µM
Nc1ccc2nc(Nc3cccc(O)c3)sc2c1 |  | 200 | 19 | 
N/N=C/c1ccc([N+](=O)[O-])o1 | 14 |  |  | IC50 [2]: 2 µM
O=C(CCN1CCCN(C(=O)OCc2ccccc2)C1)OCc1ccccc1 |  |  |  | IC50 [2]: 3 µM
CN(CCCNC(=O)OCc1ccccc1)CCNC(=O)OCc1ccccc1 |  |  |  | IC50 [2]: 21 µM
O=[N+]([O-])c1ccc2nc(NCCO)sc2c1 |  | 200 | 104 | 
CNc1nc(NC)nc(NN)n1 | 200 |  |  | 
O=C(O)c1ccccc1Nc1ccc2nc(NCCO)sc2c1 |  | 158 | 4 | 
CN(CCCNC1=NCCN1)CCNC1=NCCN1 |  |  |  | IC50 [2]: 2 µM
CC(=O)OCCN(CCCNC(=O)OCc1ccccc1)CCNC(=O)OCc1ccccc1 |  |  |  | IC50 [2]: 30 µM
CN(C)c1ccc(Nc2nc3ccc(N)cc3s2)cc1 |  | 133 | 73 | 
N=C(NCCCN(CCNC(=N)NC1CCCCC1)C(=N)NC1CCCCC1)NC1CCCCC1 |  |  |  | IC50 [2]: 21 µM
C1CN(N2CCNCC2)CCN1 |  |  |  | IC50 [2]: 17 µM
CC(=O)Nc1nc2ccc([N+](=O)[O-])cc2s1 |  | 200 | 1 | 
c1ccc(Sc2cc3ccccc3[nH]2)cc1 |  |  |  | IC50 (Toxoplasma gondii; Toxoplasma gondii): 1 µM
N[C@@H]1[C@H]2CN(c3nc4c(cc3F)c(=O)c(C(=O)O)cn4-c3ccc(F)cc3F)C[C@@H]12 (stereo in doubt; form 2) [TROVAFLOXACIN] |  |  |  | IC50 (Toxoplasma gondii): 2 µM
NCCCNCCN |  |  |  | IC50 [2]: 49 µM

Structure (SMILES) | IC50 [1] [µM] | IC50 (Trichomonas vaginalis) [µM] | IC50 (Leishmania infantum) [µM] | further results
CC(=O)Nc1nc2ccc(N)cc2s1 |  | 200 | 121 | 
CCCN(CCC)c1ccc(S(=O)(=O)N([N+](=O)[O-])[N+](=O)[O-])cc1 | 12 |  |  | IC50 (Leishmania donovani): 65 µM
O=C(O)c1ccccc1Nc1ccc2nc(Nc3ccccc3)sc2c1 |  | 41 | 30 | 
N[C@@H]1[C@H]2CN(c3nc4c(cc3F)c(=O)c(C(=O)O)cn4-c3ccc(F)cc3F)C[C@@H]12 (stereo in doubt; form 1) [TROVAFLOXACIN] |  |  |  | IC50 (Toxoplasma gondii; Toxoplasma gondii): 3 µM
NC(=O)c1nnn(Cc2cc(Cl)c(C(=O)C34CC5CC(CC(C5)C3)C4)c(Cl)c2)c1N |  |  |  | IC50 (Toxoplasma gondii; Toxoplasma gondii): 15 µM
Nc1ccc2nc(N3CCCCC3)sc2c1 |  | 214 | 10 | 
NC12CC1CN(c1nc3c(cc1F)c(=O)c(C(=O)O)cn3-c1ccc(F)cc1F)C2 (configuration not stated) [TROVAFLOXACIN8] |  |  |  | IC50 (Toxoplasma gondii; Toxoplasma gondii): 7 µM
Nc1nc(N)nc(N/N=C\c2ccco2)n1 | 29 |  |  | IC50 [2]: 13 µM
CN(C)c1nc2ccc(N)cc2s1 |  | 200 | 2 | 
[O-][S+](c1ccccc1)c1cc2ccccc2[nH]1 (configuration not stated) |  |  |  | IC50 (Toxoplasma gondii; Toxoplasma gondii): 50 µM
O=[N+]([O-])c1ccc2nc(Nc3ccccc3)sc2c1 |  | 186 | 36 | 
CCN(CC)CCCNc1nc2ccc(Nc3ccccc3C(=O)O)cc2s1 |  | 134 | 2 | 
C(CNCCNC1=NCCN1)CNC1=NCCN1 |  |  |  | IC50 [2]: 11 µM
NNc1nc(N)nc(N)n1 | 200 |  |  | 
Nc1ccc2nc(N)sc2c1 |  | 200 | 151 | 
CN(C)c1ccc(Nc2nc3ccc(Nc4ccccc4C(=O)O)cc3s2)cc1 |  | 26 | 68 | 
CN(C)c1nc2ccc(Nc3ccccc3C(=O)O)cc2s1 |  | 102 | 80 | 
CC(C)(C)CC(=O)N1CCN(N2CCN(C(=O)CC(C)(C)C)CC2)CC1 |  |  |  | IC50 [2]: 5 µM
CCCN(CCC)c1c([N+](=O)[O-])cc(S(=O)(=O)NC)cc1[N+](=O)[O-] | 5 |  |  | IC50 (Leishmania donovani): 100 µM
N=C(N)NCCCNCCNC(=N)N |  |  |  | IC50 [2]: 20 µM
CCN(CC)c1c([N+](=O)[O-])cc(S(=O)(=O)Nc2ccccc2)cc1[N+](=O)[O-] | 3 |  |  | 

Structure (SMILES) | IC50 [1] [µM] | IC50 (Trichomonas vaginalis) [µM] | IC50 (Leishmania infantum) [µM] | further results
CCN(CC)c1nc2ccc(Nc3ccccc3C(=O)O)cc2s1 |  | 3 | 33 | 
CCN(CC)CCCNc1nc2ccc([N+](=O)[O-])cc2s1 |  | 49 | 4 | 
NCCCN(CCN)CCc1c[nH]c2ccccc12 |  |  |  | IC50 [2]: 16 µM
CC(C)(C)OC(=O)NC(=N)c1ccc(NC(=O)Cn2ccnc2[N+](=O)[O-])cc1 | 119 |  |  | 
COc1cc(NS(C)(=O)=O)ccc1Nc1nc2ccc([N+](=O)[O-])cc2s1 |  | 83 | 18 | 
CCN(CC)CCCNc1nc2ccc(N)cc2s1 |  | 200 | 65 | 
CCCCCCN(CCCCCC)S(=O)(=O)c1cc([N+](=O)[O-])c(N(CCC)CCC)c([N+](=O)[O-])c1 | 50 |  |  | IC50 (Leishmania donovani): 100 µM
COc1cc(NS(C)(=O)=O)ccc1Nc1nc2ccc(Nc3ccccc3C(=O)O)cc2s1 |  | 22 | 13 | 
Nc1ccc2nc(NCCO)sc2c1 |  | 200 | 3 | 
CCCN(CCC)c1c([N+](=O)[O-])cc(S(=O)(=O)Nc2ccc(Cl)c(Cl)c2)cc1[N+](=O)[O-] | 8 |  |  | 
CCCNc1nc2ccc(N)cc2s1 |  | 200 | 98 | 
CCCNc1nc2ccc(Nc3ccccc3C(=O)O)cc2s1 |  | 76 | 39 | 
Nc1ccc2nc(Nc3ccccc3)sc2c1 |  | 208 | 63 | 
CN(CCN)CCCN |  |  |  | IC50 [2]: 69 µM
O=C(NCCCN(CCNC(=O)OCc1ccccc1)CCc1c[nH]c2ccccc12)OCc1ccccc1 |  |  |  | IC50 [2]: 84 µM
O=C(NCCCN(CCO)CCNC(=O)OCc1ccccc1)OCc1ccccc1 |  |  |  | IC50 [2]: 4 µM
CC(C)(C)OC(=O)NCCNC(=S)N1CCN(N2CCN(C(=S)NCCNC(=O)OC(C)(C)C)CC2)CC1 |  |  |  | IC50 [2]: 14 µM
O=[N+]([O-])c1ccc2nc(N3CCCCC3)sc2c1 |  | 189 | 6 | 
CNc1nc(NC)nc(N/N=C\c2ccc([N+](=O)[O-])o2)n1 | 15 |  |  | 
COc1cc(NS(C)(=O)=O)ccc1Nc1nc2ccc(N)cc2s1 |  | 156 | 10 | 

Second part, led by results:

IC50 [1] [µM] | IC50 (Trichomonas vaginalis) [µM] | IC50 (Leishmania infantum) [µM] | Structure (SMILES) | further results
1 |  |  | O=[N+]([O-])c1ccc(/C=N/O)o1 [NIFUROXIME] | IC50 [2]: 1 µM
100 |  |  | CCCN(CCC)c1c([N+](=O)[O-])cc(S(=O)(=O)N2CCOCC2)cc1[N+](=O)[O-] | IC50 (Leishmania donovani): 100 µM
9 |  |  | CCCN(CCC)c1c([N+](=O)[O-])cc(S(=O)(=O)Nc2ccccn2)cc1[N+](=O)[O-] | 
 | 200 | 4 | CN(C)c1nc2ccc([N+](=O)[O-])cc2s1 | 
200 |  |  | N=C(N)c1ccc(NC(=O)Cn2cnc([N+](=O)[O-])c2)cc1 | IC50 [2]: 80 µM
 | 125 | 2 | Nc1nc2ccc(Nc3ccccc3C(=O)O)cc2s1 | 
2 |  |  | CCCN(CCC)c1c([N+](=O)[O-])cc(S(=O)(=O)Nc2cccc(Cl)c2)cc1[N+](=O)[O-] | IC50 (Leishmania donovani): 6 µM
 | 134 | 237 | O=C(O)c1ccccc1Nc1ccc2nc(Nc3cccc(O)c3)sc2c1 | 
 | 17 | 5 | O=C(O)c1ccccc1Nc1ccc2nc(Cl)sc2c1 | 
3 |  |  | CCCN(CCC)c1c([N+](=O)[O-])cc(S(=O)(=O)NC2CC2)cc1[N+](=O)[O-] | 
20 |  |  | CCCN(CCC)c1ccc(S(=O)(=O)Nc2ccccc2)cc1[N+](=O)[O-] | IC50 (Leishmania donovani): 43 µM
9 |  |  | CCCNS(=O)(=O)c1cc([N+](=O)[O-])c(N(CCC)CCC)c([N+](=O)[O-])c1 | 
2 |  |  | CCCN(CCC)c1c([N+](=O)[O-])cc(S(=O)(=O)Nc2cccc(C)c2)cc1[N+](=O)[O-] | 
89 |  |  | Nc1nc(N)nc(N/N=C\c2cccs2)n1 | IC50 [2]: 10 µM
200 |  |  | N=C(N)c1ccc(NC(=O)Cn2ccnc2[N+](=O)[O-])cc1 | IC50 [2]: 6 µM
4 |  |  | CCCN(CCC)c1c([N+](=O)[O-])cc(S(=O)(=O)NC(C)C)cc1[N+](=O)[O-] | IC50 (Leishmania donovani): 100 µM
5 |  |  | CCCN(CCC)c1c([N+](=O)[O-])cc(S(=O)(=O)NCC)cc1[N+](=O)[O-] | IC50 (Leishmania donovani): 100 µM

IC50 [1] [µM] | IC50 (Trichomonas vaginalis) [µM] | IC50 (Leishmania infantum) [µM] | Structure (SMILES) | further results
 | 83 | 15 | O=C(O)c1ccccc1Nc1ccc2nc(N3CCCCC3)sc2c1 | 
8 |  |  | CCCN(CCC)c1c([N+](=O)[O-])cc(S(=O)(=O)N(CC)CC)cc1[N+](=O)[O-] | 
 | 166 | 25 | CN(C)c1ccc(Nc2nc3ccc([N+](=O)[O-])cc3s2)cc1 | 
 | 200 | 99 | CCN(CC)c1nc2ccc([N+](=O)[O-])cc2s1 | 
 | 174 | 15 | O=[N+]([O-])c1ccc2nc(Nc3cccc(O)c3)sc2c1 | 
 | 18 | 18 | CC(=O)Nc1nc2ccc(Nc3ccccc3C(=O)O)cc2s1 | 
1 |  |  | CCCN(CCC)c1c([N+](=O)[O-])cc(S(=O)(=O)Nc2cccc(OC)c2)cc1[N+](=O)[O-] | IC50 (Leishmania donovani): 8 µM
6 |  |  | CCCN(CCC)c1c([N+](=O)[O-])cc(S(=O)(=O)N(C)C)cc1[N+](=O)[O-] | IC50 (Leishmania donovani): 100 µM
 | 200 | 23 | CCN(CC)c1nc2ccc(N)cc2s1 | 
6 |  |  | CC1CS(=O)(=O)CCN1/N=C/c1ccc([N+](=O)[O-])o1 (configuration not stated) [NIFURTIMOX] | IC50 [2]: 2 µM
 | 200 | 1 | CCCNc1nc2ccc([N+](=O)[O-])cc2s1 | 
7 |  |  | CCCN(CCC)c1c([N+](=O)[O-])cc(S(=O)(=O)N2CCCC2)cc1[N+](=O)[O-] | 
 | 200 | 51 | Nc1nc2ccc([N+](=O)[O-])cc2s1 | 
 | 2 | 48 | O=[N+]([O-])c1ccc2nc(Cl)sc2c1 | 
 | 200 | 54 | Nc1ccc2nc(Cl)sc2c1 | 
1 |  |  | Nc1nc(N)nc(N/N=C\c2ccc([N+](=O)[O-])s2)n1 | 
200 |  |  | CC(C)(C)OC(=O)NC(=N)c1ccc(NC(=O)Cn2cnc([N+](=O)[O-])c2)cc1 | 
